Patent US20260334439A1, “BCAT2 INHIBITORS” (Agios Pharmaceuticals, Inc., priority 2023, published 2026)

Tests used:
[1] = molecular target: T1, BCAT2 (Homo sapiens, UniProt O15382); assay: BCAT2 cell inhibition using engineered A549 cells (MUT KO, BCAT1 KO; 13C6-KMV formation by LC-MS/MS); format: cell-based; design: expressed endogenous BCAT2; endogenous in cells; host or cells: A549 cells, MUT knockout and BCAT1 knockout
T1 sequence (O15382 28-392): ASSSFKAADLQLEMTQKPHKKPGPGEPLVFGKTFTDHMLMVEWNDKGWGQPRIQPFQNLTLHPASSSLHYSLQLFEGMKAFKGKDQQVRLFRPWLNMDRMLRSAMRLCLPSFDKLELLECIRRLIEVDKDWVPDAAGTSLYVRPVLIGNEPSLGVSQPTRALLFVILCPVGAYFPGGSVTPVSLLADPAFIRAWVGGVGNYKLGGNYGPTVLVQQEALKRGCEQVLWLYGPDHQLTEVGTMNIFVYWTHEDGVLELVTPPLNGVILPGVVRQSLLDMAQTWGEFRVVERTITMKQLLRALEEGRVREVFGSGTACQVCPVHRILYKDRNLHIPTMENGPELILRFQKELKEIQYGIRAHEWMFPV
How it was run: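 Medium 13C6-KMV formation is read by LC-MS/MS after PFBHA derivatization with d8-KMV internal standard. Cells are CRISPR MUT/BCAT1 double-knockout A549 expressing endogenous BCAT2, given compound 15 min before labelled isoleucine (800 uM, added 1:1) for 24 h. CTG viability run in parallel; replicates averaged.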

[2] = molecular target: T1, BCAT2; assay: BCAT2 in vitro enzyme inhibition assay (hBCAT2, glutamate dehydrogenase/diaphorase/resazurin coupled fluorescence read); format: biochemical; conditions: hBCAT2, 1 h preincubation at 25° C., one hour reaction; average where tested multiple times
How it was run: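 Coupled GDH/diaphorase/resazurin fluorescence (Ex 540/Em 590) read after 1 h reaction at 25 °C, SDS-stopped; enzyme (0.33 μg/mL in mix) first preincubated 1 h with compound, 10-point 3-fold series from 100 μM final, Tris pH 8.0 buffer with NaCl, BSA; technical duplicates, averaged across tests.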

[3] = read-out: BCAT2 Cell Inhibition (IC50), engineered A549 cells, 24 hours, 13C6-KMV in media, average where tested multiple times

| SMILES | IC50 [1] | IC50 [2] | IC50 [1, 3] |
| --- | --- | --- | --- |
| O=C(N[C@H]1CCC[C@@H](n2c(-c3ccccc3F)nc3cnc(-c4nc[nH]n4)cc32)C1)c1cc(Cl)ccc1OCCCO [Example 82, 5-chloro-N-((1S,3R)-3-(2-(2-fluorophenyl)-6-(1H-1,2,4-triazol-3-yl)-1H-imidazo[4,5-c]pyridin-1-yl)cyclohexyl)-2-(3-hydroxypropoxy)benzamide] | < 100 nM | < 100 nM |  |
| CC(C)Cc1nc2cnc(-c3nc[nH]n3)cc2n1[C@@H]1CCC[C@H](NC(=O)c2cc(Cl)ccc2OCCO)C1 [Example 78, 5-chloro-2-(2-hydroxyethoxy)-N-((1S,3R)-3-(2-isobutyl-6-(1H-1,2,4-triazol-3-yl)-1H-imidazo[4,5-c]pyridin-1-yl)cyclohexyl)benzamide] | 100 to 500 nM | < 100 nM |  |
| CC(=O)N1C[C@H](NC(=O)c2cc(F)ccn2)C[C@H](n2c(-c3ccccc3F)nc3cnc(-c4nc(C)co4)cc32)C1 [Example 167, N-((3R,5S)-1-acetyl-5-(2-(2-fluorophenyl)-6-(4-methyloxazol-2-yl)-1H-imidazo[4,5-c]pyridin-1-yl)piperidin-3-yl)-4-fluoropicolinamide] | < 100 nM | < 100 nM |  |
| O=C(N[C@H]1CCC[C@@H](n2c(-c3ccccc3F)nc3cnc(-c4nc[nH]n4)cc32)C1)c1ncccc1Cl [Example 10, 3-chloro-N-((1S,3R)-3-(2-(2-fluorophenyl)-6-(1H-1,2,4-triazol-3-yl)-1H-imidazo[4,5-c]pyridin-1-yl)cyclohexyl)picolinamide] | 500 to 1000 nM | < 100 nM |  |
| Cc1coc(-c2cc3c(cn2)nc(-c2ccccc2C#N)n3[C@@H]2CCC[C@H](NC(=O)c3cc(F)ccc3F)C2)n1 [Example 93, N-((1S,3R)-3-(2-(2-cyanophenyl)-6-(4-methyloxazol-2-yl)-1H-imidazo[4,5-c]pyridin-1-yl)cyclohexyl)-2,5-difluorobenzamide] | 100 to 500 nM | < 100 nM |  |
| O=C1c2ccc(F)cc2CN1[C@H]1CCC[C@@H](n2c(-c3ccccc3F)nc3cnc(-c4nc[nH]n4)cc32)C1 [Example 176, 5-fluoro-2-((1S,3R)-3-(2-(2-fluorophenyl)-6-(1H-1,2,4-triazol-3-yl)-1H-imidazo[4,5-c]pyridin-1-yl)cyclohexyl)isoindolin-1-one] | 100 to 500 nM | < 100 nM |  |
| O=C(N[C@H]1CCC[C@@H](n2c(-c3ccccc3F)nc3cnc(-c4nc[nH]n4)cc32)C1)c1cc(Cl)ccc1OC(CO)CO [Example 90, 5-chloro-2-((1,3-dihydroxypropan-2-yl)oxy)-N-((1S,3R)-3-(2-(2-fluorophenyl)-6-(1H-1,2,4-triazol-3-yl)-1H-imidazo[4,5-c]pyridin-1-yl)cyclohexyl)benzamide] | 100 to 500 nM | < 100 nM |  |
| CN1C[C@H](NC(=O)c2cc(Cl)ccn2)C[C@H](n2c(-c3ncccc3F)nc3cnc(-c4nc[nH]n4)cc32)C1 [Example 132, 4-chloro-N-((3R,5S)-5-(2-(3-fluoropyridin-2-yl)-6-(1H-1,2,4-triazol-3-yl)-1H-imidazo[4,5-c]pyridin-1-yl)-1-methylpiperidin-3-yl)picolinamide] |  | < 100 nM | > 1000 nM |
| CO[C@H]1C[C@H](NC(=O)c2cc(Cl)ccc2OCCO)C[C@H](n2c(-c3ccccc3F)nc3cnc(-c4nc[nH]n4)cc32)C1 [Example 119, 5-chloro-N-((1R,3S,5S)-3-(2-(2-fluorophenyl)-6-(1H-1,2,4-triazol-3-yl)-1H-imidazo[4,5-c]pyridin-1-yl)-5-methoxycyclohexyl)-2-(2-hydroxyethoxy)benzamide] | < 100 nM | < 100 nM |  |
| O=C1c2cc(Cl)ccc2CN1[C@H]1CCC[C@@H](n2c(-c3ccccc3F)nc3cnc(-c4nc[nH]n4)cc32)C1 [Example 168, 6-chloro-2-((1S,3R)-3-(2-(2-fluorophenyl)-6-(1H-1,2,4-triazol-3-yl)-1H-imidazo[4,5-c]pyridin-1-yl)cyclohexyl)isoindolin-1-one] | < 100 nM | < 100 nM |  |
| COCCOc1ccc(Cl)cc1C(=O)N[C@H]1CCC[C@@H](n2c(-c3ccccc3F)nc3cnc(-c4nc[nH]n4)cc32)C1 [Example 54, 5-chloro-N-((1S,3R)-3-(2-(2-fluorophenyl)-6-(1H-1,2,4-triazol-3-yl)-1H-imidazo[4,5-c]pyridin-1-yl)cyclohexyl)-2-(2-methoxyethoxy)benzamide] | < 100 nM | < 100 nM |  |
| O=C(N[C@H]1CCC[C@@H](n2c(-c3ccccc3F)nc3cnc(-c4nc[nH]n4)cc32)C1)c1cc(Cl)ccc1OCCN1CCCC1 [Example 35, 5-chloro-N-((1S,3R)-3-(2-(2-fluorophenyl)-6-(1H-1,2,4-triazol-3-yl)-1H-imidazo[4,5-c]pyridin-1-yl)cyclohexyl)-2-(2-(pyrrolidin-1-yl)ethoxy)benzamide] | 500 to 1000 nM | 100 to 500 nM |  |
| COc1ccc(Cl)cc1C(=O)N[C@H]1CCC[C@@H](n2c(-c3ccccc3F)nc3ccc(-c4nc[nH]n4)cc32)[C@@H]1O [Example 217, 5-chloro-N-((1S,2R,3R)-3-(2-(2-fluorophenyl)-6-(1H-1,2,4-triazol-3-yl)-1H-benzo[d]imidazol-1-yl)-2-hydroxycyclo-hexyl)-2-methoxybenzamide] |  | < 100 nM | > 1000 nM |
| COc1ncc(Cl)cc1C(=O)N[C@H]1CCC[C@@H](n2c(-c3ccccc3F)nc3cnc(-c4nc[nH]n4)cc32)C1 [Example 22, 5-chloro-N-((1S,3R)-3-(2-(2-fluorophenyl)-6-(1H-1,2,4-triazol-3-yl)-1H-imidazo[4,5-c]pyridin-1-yl)cyclohexyl)-2-methoxynicotinamide] | < 100 nM | < 100 nM |  |
| CC(C)Cc1nc2cnc(-n3nccn3)cc2n1[C@@H]1CCC[C@H](NC(=O)c2cc(Cl)ccc2OCCO)C1 [Example 57, 5-chloro-2-(2-hydroxyethoxy)-N-((1S,3R)-3-(2-isobutyl-6-(2H-1,2,3-triazol-2-yl)-1H-imidazo[4,5-c]pyridin-1-yl)cyclohexyl)benzamide] | 500 to 1000 nM | < 100 nM |  |
| CO[C@H]1C[C@H](NC(=O)c2cc(F)ccc2F)C[C@H](n2c(-c3ccccc3F)nc3cnc(-c4nc[nH]n4)cc32)C1 [Example 122, 2,5-difluoro-N-((1R,3S,5S)-3-(2-(2-fluorophenyl)-6-(1H-1,2,4-triazol-3-yl)-1H-imidazo[4,5-c]pyridin-1-yl)-5-methoxycyclohexyl)benzamide] | < 100 nM | < 100 nM |  |
| O=C(N[C@H]1CCC[C@@H](n2c(-c3ccccc3F)nc3cnc(-c4nc[nH]n4)cc32)C1)c1c(F)cccc1F [Example 74, 2,6-difluoro-N-((1S,3R)-3-(2-(2-fluorophenyl)-6-(1H-1,2,4-triazol-3-yl)-1H-imidazo[4,5-c]pyridin-1-yl)cyclohexyl)benzamide] | 100 to 500 nM | < 100 nM |  |
| CCN(C)Cc1nc2cnc(-c3nc[nH]n3)cc2n1[C@@H]1CCC[C@H](NC(=O)c2cc(Cl)ccn2)C1 [Example 24, 4-chloro-N-((1S,3R)-3-(2-((ethyl(methyl)amino)methyl)-6-(1H-1,2,4-triazol-3-yl)-1H-imidazo[4,5-c]pyridin-1-yl)cyclohexyl)picolinamide] |  | 500 to 1000 nM | > 1000 nM |
| O=C1c2cc(F)ccc2NCN1[C@H]1CCC[C@@H](n2c(-c3ccccc3F)nc3cnc(-c4nc[nH]n4)cc32)C1 [Example 208, 6-fluoro-3-((1S,3R)-3-(2-(2-fluorophenyl)-6-(1H-1,2,4-triazol-3-yl)-1H-imidazo[4,5-c]pyridin-1-yl)cyclohexyl)-2,3-dihydroquinazolin-4(1H)-one] | < 100 nM | < 100 nM |  |
| O=C(N[C@H]1CCC[C@@H](n2c(-c3ccccc3F)nc3cnc(-c4nc[nH]n4)cc32)C1)c1cc(Cl)ccc1OCCO [Example 34, 5-chloro-N-((1S,3R)-3-(2-(2-fluorophenyl)-6-(1H-1,2,4-triazol-3-yl)-1H-imidazo[4,5-c]pyridin-1-yl)cyclohexyl)-2-(2-hydroxyethoxy)benzamide] | < 100 nM | < 100 nM |  |
| O=C(N[C@H]1CCC[C@@H](n2c(-c3ccccc3F)nc3cnc(-c4nc[nH]n4)cc32)C1)c1ccc(Cl)cn1 [Example 13, 5-chloro-N-((1S,3R)-3-(2-(2-fluorophenyl)-6-(1H-1,2,4-triazol-3-yl)-1H-imidazo[4,5-c]pyridin-1-yl)cyclohexyl)picolinamide] | < 100 nM | < 100 nM |  |
| O=C1c2cc(Cl)ccc2CN1[C@H]1CCC[C@@H](n2c(-c3ccccc3F)nc3cnc(-c4nc[nH]n4)cc32)[C@@H]1O [Example 183, 6-chloro-2-((1S,2S,3R)-3-(2-(2-fluorophenyl)-6-(1H-1,2,4-triazol-3-yl)-1H-imidazo[4,5-c]pyridin-1-yl)-2-hydroxycyclohexyl)isoindolin-1-one] | < 100 nM | < 100 nM |  |
